Source: patent publication US12391721B2, “Crystal forms of beta-nicotinamide mononucleotide” (Metro International Biotech, LLC, priority 2015, dated 2025)

Assays:
Format in all cases: physicochemical
[1] = Three month stability and forced degradation study: particle morphology by polarised light microscopy (PLM); conditions: Replicate 1
Description: Samples were studied on a Leica LM/DM polarised light microscope with a digital video camera for image capture. A small amount of each sample was placed on a glass slide, 15 mounted in immersion oil and covered with a glass slip, the individual particles being separated as well as possible. The sample was viewed with appropriate magnification and partially polarised light, coupled to a λ false-color filter.
(§1) […] The samples were prepared in duplicate with an offset of 2 weeks. Each replicate was stored in a different container.
(§2) Replicate 1 was charged in an open HPLC vial that was placed in a sealed scintillation vial containing a saturated solution of the relevant inorganic salt (Table 2). These samples were analysed by HPLC, 1H NMR, XRPD and Polarized Light Microscopy (PLM) at 4, 8, and 12 week time points.

[2] = Dynamic vapor sorption (DVS) of amorphous NMN; conditions: FIG. 7
From the text: When a sample of amorphous NMN is exposed to atmospheric humidity, the sample goes through phases. […] The amorphous sample is hygroscopic until it deliquesces and starts crystallizing.

[3] = Three month stability and forced degradation study: visual observations of stored solids
Description: as §1, §2
(§3) Replicate 2 was stored in sealed box with a recipient containing a saturated solution of the relevant inorganic salt (Table 2). These samples were analysed by HPLC at 2, 6, 10 and 12 week time points. Samples at 25° C./0% RH were stored in a sealed box containing a desiccant agent (P2O5).

[4] = Three month stability and forced degradation study: HPLC purity of stored solids; conditions: for Known Impurity* (%) (nicotinamide, RRT = 1.73 min) / Purity (%): HPLC
Description: Purity analysis was performed on an Agilent HP1100 series system equipped with a diode array detector and using ChemStation software vB.04.03 using the method detailed below in Table 1.
as §1, §2, §3

[5] = Three month stability and forced degradation study: solid form by XRPD after storage; conditions: for XRPD: Replicate 1
Description: X-Ray Powder Diffraction patterns were collected on a Bruker D8 diffractometer using Cu Kα radiation (40 kV, 40 mA), θ-2θ goniometer, and divergence of V4 and receiving slits, a Ge monochromator and a Lynxeye detector. The instrument is performance checked using a certified Corundum standard (NIST 1976). The software used for data collection was Diffrac Plus XRD Commander v2.6.1 and the data were analysed and presented using Diffrac Plus EVA v15.0.0.0.
Samples were run under ambient conditions as flat plate specimens using powder as received. The sample was gently packed into a cavity cut into polished, zero-background (510) silicon wafer. The sample was rotated in its own plane during analysis. The details of the data collection are: • Angular range: 2 to 42° 2θ • Step size: 0.05° 2θ • Collection time: 0.5 s/step HPLC
as §1, §2

[6] = solid stored 25° C., 0% RH, 4 weeks
[7] = solid stored 25° C., 0% RH, 8 weeks
[8] = solid stored 25° C., 0% RH, 12 weeks
[9] = solid stored 25° C., 60% RH, 4 weeks
[10] = solid stored 25° C., 60% RH, 12 weeks
[11] = solid stored 25° C., 97% RH, 4 weeks
[12] = solid stored 40° C., 75% RH, 4 weeks
[13] = solid stored 25° C., 0% RH, 4 weeks, Replicate 1
[14] = solid stored 25° C., 0% RH, 8 weeks, Replicate 1
[15] = solid stored 25° C., 0% RH, 12 weeks, Replicate 1
[16] = solid stored 25° C., 60% RH, 2 weeks, Replicate 2
[17] = solid stored 25° C., 60% RH, 4 weeks, Replicate 1
[18] = solid stored 25° C., 60% RH, 6 weeks, Replicate 2
[19] = solid stored 25° C., 60% RH, 8 weeks, Replicate 1
[20] = solid stored 25° C., 60% RH, 10 weeks, Replicate 2
[21] = solid stored 25° C., 60% RH, 12 weeks, Replicate 1
[22] = solid stored 25° C., 60% RH, 12 weeks, Replicate 2
[23] = solid stored 25° C., 97% RH, 2 weeks, Replicate 2
[24] = solid stored 25° C., 97% RH, 4 weeks, Replicate 1
[25] = solid stored 25° C., 97% RH, 6 weeks, Replicate 2
[26] = solid stored 25° C., 97% RH, 10 weeks, Replicate 2
[27] = solid stored 25° C., 97% RH, 12 weeks, Replicate 2
[28] = solid stored 40° C., 75% RH, 2 weeks, Replicate 2
[29] = solid stored 40° C., 75% RH, 4 weeks, Replicate 1
[30] = solid stored 40° C., 75% RH, 6 weeks, Replicate 2
[31] = solid stored 40° C., 75% RH, 8 weeks, Replicate 1
[32] = solid stored 40° C., 75% RH, 10 weeks, Replicate 2
[33] = solid stored 40° C., 75% RH, 12 weeks, Replicate 2
[34] = solid stored 25° C., 0% RH, 12 weeks, Replicate 1, listed as Amorphous material
[35] = solid stored 40° C., 75% RH, 12 weeks, Replicate 2, listed as amorphous material
[36] = t = 0, baseline of the stability study, listed as J07086

PLM [1, 6]: Unchanged | PLM [1, 7]: Unchanged | PLM [1, 8]: Unchanged | PLM [1, 9]: acicular | PLM [1, 10]: acicular | PLM [1, 11]: acicular | PLM [1, 12]: acicular | reversible mass pick up (DVS) ([2]; once crystallised, double cycle): up to 9 % w/w | behaviour on exposure to atmospheric humidity (DVS change in mass plot) ([2]; until it deliquesces and starts crystallizing): hygroscopic | Observations [3, 13]: white solid | Observations [3, 14]: white solid | Observations [3, 15]: white solid | Observations [3, 16]: light yellow solid, | Observations [3, 17]: brown solid | Observations [3, 18]: light brown, | Observations [3, 19]: brown solid, | Observations [3, 20]: light brown, | Observations [3, 21]: brown solid, | Observations [3, 22]: light brown, | Observations [3, 23]: white compacted | Observations [3, 24]: white solid, | Observations [3, 25]: white solid, | Observations ([3]; solid stored 25° C., 97% RH, 8 weeks, Replicate 1): partially | Observations [3, 26]: white solid, | Observations ([3]; solid stored 25° C., 97% RH, 12 weeks, Replicate 1): deliquesced. | Observations [3, 27]: white solid, | Observations [3, 28]: brown compacted | Observations [3, 29]: brown | Observations [3, 30]: dark brown solid | Observations [3, 31]: brown | Observations [3, 32]: black solid | Observations ([3]; solid stored 40° C., 75% RH, 12 weeks, Replicate 1): black solid, | Observations [3, 33]: black solid, | Known Impurity* (%) (nicotinamide, RRT = 1.73 min) [4, 13]: 1.81% | Purity (%) [4, 13]: 96.9% | Known Impurity* (%) (nicotinamide, RRT = 1.73 min) [4, 14]: 2.44% | Purity (%) [4, 14]: 95.8% | Known Impurity* (%) (nicotinamide, RRT = 1.73 min) [4, 15]: 2.81% | Purity (%) [4, 15]: 95.0% | Known Impurity* (%) (nicotinamide, RRT = 1.73 min) [4, 34]: 2.8% | Purity (%) [4, 34]: 95.5% | Known Impurity* (%) (nicotinamide, RRT = 1.73 min) [4, 16]: 2.14% | Purity (%) [4, 16]: 97.4% | Known Impurity* (%) (nicotinamide, RRT = 1.73 min) [4, 17]: 2.13% | Purity (%) [4, 17]: 96.9% | Known Impurity* (%) (nicotinamide, RRT = 1.73 min) [4, 18]: 2.06% | Purity (%) [4, 18]: 97.4% | Known Impurity* (%) (nicotinamide, RRT = 1.73 min) [4, 19]: 3.46% | Purity (%) [4, 19]: 95.2% | Known Impurity* (%) (nicotinamide, RRT = 1.73 min) [4, 20]: 2.92% | Purity (%) [4, 20]: 96.0% | Known Impurity* (%) (nicotinamide, RRT = 1.73 min) [4, 21]: 3.46% | Purity (%) [4, 21]: 95.7% | Known Impurity* (%) (nicotinamide, RRT = 1.73 min) [4, 22]: 2.32% | Purity (%) [4, 22]: 96.2% | Known Impurity* (%) (nicotinamide, RRT = 1.73 min) [4, 23]: 1.79% | Purity (%) [4, 23]: 97.8% | Known Impurity* (%) (nicotinamide, RRT = 1.73 min) [4, 24]: 2.44% | Purity (%) [4, 24]: 97.1% | Known Impurity* (%) (nicotinamide, RRT = 1.73 min) [4, 25]: 3.01% | Purity (%) [4, 25]: 96.5% | Known Impurity* (%) (nicotinamide, RRT = 1.73 min) [4, 26]: 4.39% | Purity (%) [4, 26]: 94.9% | Known Impurity* (%) (nicotinamide, RRT = 1.73 min) [4, 27]: 7.02% | Purity (%) [4, 27]: 91.5% | Known Impurity* (%) (nicotinamide, RRT = 1.73 min) [4, 28]: 4.61% | Purity (%) [4, 28]: 94.6% | Known Impurity* (%) (nicotinamide, RRT = 1.73 min) [4, 29]: 6.70% | Purity (%) [4, 29]: 91.3% | Known Impurity* (%) (nicotinamide, RRT = 1.73 min) [4, 30]: 8.22% | Purity (%) [4, 30]: 88.0% | Known Impurity* (%) (nicotinamide, RRT = 1.73 min) [4, 31]: 14.23% | Purity (%) [4, 31]: 76.9% | Known Impurity* (%) (nicotinamide, RRT = 1.73 min) [4, 32]: 16.18% | Purity (%) [4, 32]: 75.9% | Known Impurity* (%) (nicotinamide, RRT = 1.73 min) [4, 33]: 20.60% | Purity (%) [4, 33]: ~67.5^$ % | Known Impurity* (%) (nicotinamide, RRT = 1.73 min) [4, 35]: 20.6% | Purity (%) [4, 35]: 67.5% | HPLC purity profile, Area % of main peak (RRT 1.00) [4, 36]: 98.56 Area % | HPLC purity profile, Area % of peak at RRT 1.76 / 1.74 (nicotinamide) [4, 36]: 0.87 Area % | Purity ([4]; time 0, listed as Amorphous material): 98.2% | solid form and particle morphology after storage ([5]; 12 weeks at 25° C., 0% RH): remained unchanged | XRPD [5, 6]: Unchanged | XRPD [5, 7]: Unchanged | XRPD [5, 8]: Unchanged | XRPD [5, 9]: Form 1 | XRPD ([5]; solid stored 25° C., 60% RH, 8 weeks): Form 1 | XRPD [5, 10]: Form 1 | XRPD [5, 11]: Form 1 | XRPD [5, 12]: Form 1 | XRPD ([5]; solid stored 40° C., 75% RH, 8 weeks): Form 1 | XRPD ([5]; solid stored 40° C., 75% RH, 12 weeks): Form 1 | solid form on storage under humidity ([5]; stored under 25% or greater relative humidity, gives Form 1 with acicular morphology): crystallized
Structure (SMILES): NC(=O)c1ccc[n+]([C@@H]2O[C@H](COP(=O)([O-])O)[C@@H](O)[C@H]2O)c1 [Form J07087, β-nicotinamide mononucleotide, reference compound]
